According to PMC3639963, “A New Class of Small Molecule Inhibitor of BMP Signaling” (PLoS ONE, 2013):

Columns and labels:
Test in all cases: Nanosyn kinase profiling
Format in all cases: biochemical
SPHK2 = molecular target: T1, SPHK2 (Homo sapiens, UniProt Q9NRA0); settings: read-out: Percentage inhibition; for inhibition at 0.1 µM: 0.1 µM inhibitor; for inhibition at 1 µM: 1 µM inhibitor
T1 construct: purchased Nanosyn (enzymatic panel); SGC in-house recombinant human kinases (DSF panel); Invitrogen (ALK1-6)
T1 sequence (Q9NRA0 1-654): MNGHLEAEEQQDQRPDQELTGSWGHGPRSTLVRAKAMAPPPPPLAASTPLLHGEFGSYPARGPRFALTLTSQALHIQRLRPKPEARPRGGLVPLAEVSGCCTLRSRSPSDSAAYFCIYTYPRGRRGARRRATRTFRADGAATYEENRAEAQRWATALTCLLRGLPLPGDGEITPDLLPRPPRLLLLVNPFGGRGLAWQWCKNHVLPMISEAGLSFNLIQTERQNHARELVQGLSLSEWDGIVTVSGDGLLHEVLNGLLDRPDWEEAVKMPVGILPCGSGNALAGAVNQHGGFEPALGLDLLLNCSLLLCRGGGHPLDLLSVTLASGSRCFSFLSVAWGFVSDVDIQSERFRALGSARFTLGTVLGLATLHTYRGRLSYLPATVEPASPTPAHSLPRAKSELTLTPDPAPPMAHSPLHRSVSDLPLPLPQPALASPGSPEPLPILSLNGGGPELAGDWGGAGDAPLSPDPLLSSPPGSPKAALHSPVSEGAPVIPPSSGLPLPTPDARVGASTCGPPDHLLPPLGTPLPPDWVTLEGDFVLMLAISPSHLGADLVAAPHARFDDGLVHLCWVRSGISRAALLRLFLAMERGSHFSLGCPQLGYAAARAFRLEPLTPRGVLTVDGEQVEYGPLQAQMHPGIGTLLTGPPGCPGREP
Summary of the method: (§1)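 Percent inhibition of each kinase was measured with the inhibitor at 0.1 µM and at 1 µM, as part of a 200-kinase human selectivity panel.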

ARG = molecular target: T2, ARG (Homo sapiens, UniProt P42684); settings: for inhibition at 0.1 µM / inhibition at 1 µM: read-out: Percentage inhibition; for inhibition at 1 µM: 1 µM inhibitor
T2 construct: purchased Nanosyn (enzymatic panel); SGC in-house recombinant human kinases (DSF panel); Invitrogen (ALK1-6)
Summary of the method: as §1

BRSK1 = molecular target: T3, BRSK1 (Homo sapiens, UniProt Q8TDC3); settings: read-out: Percentage inhibition; for inhibition at 0.1 µM: 0.1 µM inhibitor; for inhibition at 1 µM: 1 µM inhibitor
T3 construct: purchased Nanosyn (enzymatic panel); SGC in-house recombinant human kinases (DSF panel); Invitrogen (ALK1-6)
T3 sequence (Q8TDC3 1-778): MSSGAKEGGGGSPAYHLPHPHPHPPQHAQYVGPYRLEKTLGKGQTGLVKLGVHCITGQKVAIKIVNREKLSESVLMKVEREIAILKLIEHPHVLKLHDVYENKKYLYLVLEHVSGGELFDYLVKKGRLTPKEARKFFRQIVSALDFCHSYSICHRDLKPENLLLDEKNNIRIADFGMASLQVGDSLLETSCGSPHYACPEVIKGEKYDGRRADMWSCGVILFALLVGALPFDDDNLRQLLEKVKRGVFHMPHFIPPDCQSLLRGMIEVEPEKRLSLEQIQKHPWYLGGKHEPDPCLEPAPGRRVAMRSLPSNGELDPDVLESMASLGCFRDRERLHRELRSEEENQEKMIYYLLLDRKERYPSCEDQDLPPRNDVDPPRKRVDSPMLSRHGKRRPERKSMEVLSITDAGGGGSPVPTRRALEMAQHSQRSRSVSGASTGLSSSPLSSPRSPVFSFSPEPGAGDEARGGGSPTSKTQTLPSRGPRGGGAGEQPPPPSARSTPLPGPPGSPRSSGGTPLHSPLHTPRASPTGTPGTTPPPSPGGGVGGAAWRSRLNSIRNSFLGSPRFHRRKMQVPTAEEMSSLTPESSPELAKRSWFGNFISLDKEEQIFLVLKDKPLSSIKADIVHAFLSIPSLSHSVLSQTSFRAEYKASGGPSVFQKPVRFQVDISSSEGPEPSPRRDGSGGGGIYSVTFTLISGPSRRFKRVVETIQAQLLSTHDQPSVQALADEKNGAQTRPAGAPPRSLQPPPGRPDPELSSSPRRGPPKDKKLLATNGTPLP
Summary of the method: as §1

HIPK1 = molecular target: T4, HIPK1 (Homo sapiens, UniProt Q86Z02); settings: read-out: Percentage inhibition; for inhibition at 0.1 µM: 0.1 µM inhibitor; for inhibition at 1 µM: 1 µM inhibitor
T4 construct: purchased Nanosyn (enzymatic panel); SGC in-house recombinant human kinases (DSF panel); Invitrogen (ALK1-6)
Summary of the method: as §1

MET = molecular target: T5, MET (Homo sapiens, UniProt P08581); settings: read-out: Percentage inhibition; for inhibition at 0.1 µM: 0.1 µM inhibitor; for inhibition at 1 µM: 1 µM inhibitor
T5 construct: purchased Nanosyn (enzymatic panel); SGC in-house recombinant human kinases (DSF panel); Invitrogen (ALK1-6)
Summary of the method: as §1

P70S6KB1 = molecular target: T6, P70S6KB1 (Homo sapiens, UniProt P23443); settings: read-out: Percentage inhibition; for inhibition at 0.1 µM: 0.1 µM inhibitor; for inhibition at 1 µM: 1 µM inhibitor
T6 construct: purchased Nanosyn (enzymatic panel); SGC in-house recombinant human kinases (DSF panel); Invitrogen (ALK1-6)
Summary of the method: as §1

CK2 = molecular target: T7, CK2 (Homo sapiens, UniProt P68400); settings: read-out: Percentage inhibition; for inhibition at 0.1 µM: 0.1 µM inhibitor; for inhibition at 1 µM: 1 µM inhibitor
T7 construct: purchased Nanosyn (enzymatic panel); SGC in-house recombinant human kinases (DSF panel); Invitrogen (ALK1-6)
Summary of the method: as §1

IRAK4 = molecular target: T8, IRAK4 (Homo sapiens, UniProt Q9NWZ3); settings: read-out: Percentage inhibition; for inhibition at 0.1 µM: 0.1 µM inhibitor; for inhibition at 1 µM: 1 µM inhibitor
T8 construct: purchased Nanosyn (enzymatic panel); SGC in-house recombinant human kinases (DSF panel); Invitrogen (ALK1-6)
T8 sequence (Q9NWZ3 1-460): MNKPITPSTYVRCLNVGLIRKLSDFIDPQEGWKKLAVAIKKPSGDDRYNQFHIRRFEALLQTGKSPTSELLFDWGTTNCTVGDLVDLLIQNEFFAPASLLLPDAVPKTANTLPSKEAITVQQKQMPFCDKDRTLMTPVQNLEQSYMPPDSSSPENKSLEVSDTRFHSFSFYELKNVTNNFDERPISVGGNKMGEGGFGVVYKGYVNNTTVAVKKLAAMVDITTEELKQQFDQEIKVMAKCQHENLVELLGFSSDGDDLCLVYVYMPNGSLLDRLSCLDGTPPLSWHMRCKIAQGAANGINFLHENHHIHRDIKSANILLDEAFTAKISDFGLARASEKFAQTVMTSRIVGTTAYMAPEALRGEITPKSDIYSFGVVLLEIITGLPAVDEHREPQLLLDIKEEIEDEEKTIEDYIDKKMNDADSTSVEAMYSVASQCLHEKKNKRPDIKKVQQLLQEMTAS
Summary of the method: as §1

T7 sequence (P68400 whole entry): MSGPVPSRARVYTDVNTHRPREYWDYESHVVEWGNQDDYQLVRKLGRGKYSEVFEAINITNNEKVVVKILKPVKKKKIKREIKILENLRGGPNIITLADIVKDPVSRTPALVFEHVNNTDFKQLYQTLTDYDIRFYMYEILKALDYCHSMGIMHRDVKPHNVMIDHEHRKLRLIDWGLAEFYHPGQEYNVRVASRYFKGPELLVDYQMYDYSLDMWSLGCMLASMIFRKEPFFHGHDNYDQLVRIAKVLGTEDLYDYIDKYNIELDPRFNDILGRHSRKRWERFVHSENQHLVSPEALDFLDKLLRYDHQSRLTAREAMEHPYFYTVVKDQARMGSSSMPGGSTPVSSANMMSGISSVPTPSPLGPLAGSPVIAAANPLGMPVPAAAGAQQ
T7 sequence (P67870 whole entry partner): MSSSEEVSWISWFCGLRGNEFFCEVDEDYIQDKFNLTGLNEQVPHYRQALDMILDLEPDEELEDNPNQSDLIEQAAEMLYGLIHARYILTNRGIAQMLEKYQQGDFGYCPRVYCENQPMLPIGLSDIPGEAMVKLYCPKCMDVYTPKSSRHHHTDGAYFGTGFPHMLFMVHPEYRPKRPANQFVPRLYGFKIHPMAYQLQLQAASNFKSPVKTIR
T5 sequence (P08581 25-1390): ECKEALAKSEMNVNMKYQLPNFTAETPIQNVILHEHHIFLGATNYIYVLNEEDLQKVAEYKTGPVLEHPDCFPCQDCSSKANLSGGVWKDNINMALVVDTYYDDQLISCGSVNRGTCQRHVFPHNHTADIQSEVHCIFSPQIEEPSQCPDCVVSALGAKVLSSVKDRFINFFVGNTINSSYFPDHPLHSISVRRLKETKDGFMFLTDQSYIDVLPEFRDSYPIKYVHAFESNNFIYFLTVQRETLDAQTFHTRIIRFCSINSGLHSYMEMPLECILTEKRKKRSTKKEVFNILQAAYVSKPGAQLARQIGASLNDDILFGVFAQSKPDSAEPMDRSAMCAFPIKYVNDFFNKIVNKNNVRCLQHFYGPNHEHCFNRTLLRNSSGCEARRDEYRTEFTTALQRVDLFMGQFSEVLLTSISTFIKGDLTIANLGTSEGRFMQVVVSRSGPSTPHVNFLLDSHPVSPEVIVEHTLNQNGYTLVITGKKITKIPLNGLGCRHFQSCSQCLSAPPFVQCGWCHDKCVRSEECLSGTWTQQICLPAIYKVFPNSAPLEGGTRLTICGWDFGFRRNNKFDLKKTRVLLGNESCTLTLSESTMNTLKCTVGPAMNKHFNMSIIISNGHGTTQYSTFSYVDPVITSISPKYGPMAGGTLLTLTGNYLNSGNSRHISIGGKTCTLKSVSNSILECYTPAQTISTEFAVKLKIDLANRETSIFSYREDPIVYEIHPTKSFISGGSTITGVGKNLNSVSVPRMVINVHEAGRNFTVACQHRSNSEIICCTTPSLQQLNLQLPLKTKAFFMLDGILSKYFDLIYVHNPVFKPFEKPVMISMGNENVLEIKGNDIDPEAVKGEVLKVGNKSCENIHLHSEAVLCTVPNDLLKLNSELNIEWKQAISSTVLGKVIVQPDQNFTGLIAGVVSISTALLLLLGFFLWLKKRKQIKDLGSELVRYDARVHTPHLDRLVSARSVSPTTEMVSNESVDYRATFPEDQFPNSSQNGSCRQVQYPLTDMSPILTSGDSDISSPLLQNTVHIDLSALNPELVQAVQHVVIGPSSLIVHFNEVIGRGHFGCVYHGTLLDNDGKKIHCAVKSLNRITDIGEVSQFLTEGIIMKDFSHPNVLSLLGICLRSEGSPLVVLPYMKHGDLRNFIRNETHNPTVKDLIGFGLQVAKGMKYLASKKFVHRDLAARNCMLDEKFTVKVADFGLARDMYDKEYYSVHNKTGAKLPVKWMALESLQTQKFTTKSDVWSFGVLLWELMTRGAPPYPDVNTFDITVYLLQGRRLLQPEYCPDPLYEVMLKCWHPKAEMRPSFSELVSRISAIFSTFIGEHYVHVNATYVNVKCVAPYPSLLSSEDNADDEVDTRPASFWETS
T6 sequence (P23443 whole entry): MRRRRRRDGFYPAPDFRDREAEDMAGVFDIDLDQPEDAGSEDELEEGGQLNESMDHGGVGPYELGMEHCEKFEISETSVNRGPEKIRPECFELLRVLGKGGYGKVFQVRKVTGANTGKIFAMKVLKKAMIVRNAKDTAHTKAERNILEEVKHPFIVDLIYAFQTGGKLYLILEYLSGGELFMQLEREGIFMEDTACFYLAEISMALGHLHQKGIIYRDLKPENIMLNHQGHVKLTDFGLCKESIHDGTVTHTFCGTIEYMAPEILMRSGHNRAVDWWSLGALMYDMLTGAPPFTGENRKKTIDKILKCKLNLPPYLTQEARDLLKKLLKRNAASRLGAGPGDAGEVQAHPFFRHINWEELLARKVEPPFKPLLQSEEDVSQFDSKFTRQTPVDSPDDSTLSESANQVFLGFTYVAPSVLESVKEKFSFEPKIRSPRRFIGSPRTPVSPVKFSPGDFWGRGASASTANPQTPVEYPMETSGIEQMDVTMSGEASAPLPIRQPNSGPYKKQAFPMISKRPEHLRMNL
T4 sequence (Q86Z02 whole entry): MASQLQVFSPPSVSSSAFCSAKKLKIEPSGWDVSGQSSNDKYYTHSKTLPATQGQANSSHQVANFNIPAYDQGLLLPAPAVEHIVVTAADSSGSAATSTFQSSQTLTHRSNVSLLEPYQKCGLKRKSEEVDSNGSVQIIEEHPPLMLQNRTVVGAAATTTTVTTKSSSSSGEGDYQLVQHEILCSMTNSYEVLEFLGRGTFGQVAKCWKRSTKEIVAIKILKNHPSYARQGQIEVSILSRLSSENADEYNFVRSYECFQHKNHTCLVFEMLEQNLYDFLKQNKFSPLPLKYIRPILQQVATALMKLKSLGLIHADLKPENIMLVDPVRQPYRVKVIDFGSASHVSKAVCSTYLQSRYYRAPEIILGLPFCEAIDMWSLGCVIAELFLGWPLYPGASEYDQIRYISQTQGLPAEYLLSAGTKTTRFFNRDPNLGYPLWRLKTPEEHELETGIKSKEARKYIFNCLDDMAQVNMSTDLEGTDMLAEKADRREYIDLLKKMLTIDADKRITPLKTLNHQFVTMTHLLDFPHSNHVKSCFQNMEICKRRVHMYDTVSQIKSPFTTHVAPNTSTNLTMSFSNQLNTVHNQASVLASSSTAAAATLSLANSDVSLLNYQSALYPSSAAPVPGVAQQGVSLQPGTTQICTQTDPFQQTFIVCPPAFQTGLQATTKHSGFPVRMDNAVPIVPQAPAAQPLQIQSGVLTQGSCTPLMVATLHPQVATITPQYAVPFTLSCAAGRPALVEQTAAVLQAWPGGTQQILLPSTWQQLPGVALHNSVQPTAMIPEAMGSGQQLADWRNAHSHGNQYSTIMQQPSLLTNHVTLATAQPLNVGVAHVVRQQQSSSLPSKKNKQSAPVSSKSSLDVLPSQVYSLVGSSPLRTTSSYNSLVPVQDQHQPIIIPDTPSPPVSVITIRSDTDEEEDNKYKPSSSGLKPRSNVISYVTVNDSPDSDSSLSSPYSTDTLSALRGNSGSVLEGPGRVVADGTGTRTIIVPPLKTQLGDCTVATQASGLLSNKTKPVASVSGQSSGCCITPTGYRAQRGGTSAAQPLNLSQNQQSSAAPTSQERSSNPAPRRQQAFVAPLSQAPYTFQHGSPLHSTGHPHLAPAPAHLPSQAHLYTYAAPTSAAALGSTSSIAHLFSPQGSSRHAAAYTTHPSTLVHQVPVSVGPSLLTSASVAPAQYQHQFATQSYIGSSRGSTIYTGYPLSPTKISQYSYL
T2 sequence (P42684 whole entry): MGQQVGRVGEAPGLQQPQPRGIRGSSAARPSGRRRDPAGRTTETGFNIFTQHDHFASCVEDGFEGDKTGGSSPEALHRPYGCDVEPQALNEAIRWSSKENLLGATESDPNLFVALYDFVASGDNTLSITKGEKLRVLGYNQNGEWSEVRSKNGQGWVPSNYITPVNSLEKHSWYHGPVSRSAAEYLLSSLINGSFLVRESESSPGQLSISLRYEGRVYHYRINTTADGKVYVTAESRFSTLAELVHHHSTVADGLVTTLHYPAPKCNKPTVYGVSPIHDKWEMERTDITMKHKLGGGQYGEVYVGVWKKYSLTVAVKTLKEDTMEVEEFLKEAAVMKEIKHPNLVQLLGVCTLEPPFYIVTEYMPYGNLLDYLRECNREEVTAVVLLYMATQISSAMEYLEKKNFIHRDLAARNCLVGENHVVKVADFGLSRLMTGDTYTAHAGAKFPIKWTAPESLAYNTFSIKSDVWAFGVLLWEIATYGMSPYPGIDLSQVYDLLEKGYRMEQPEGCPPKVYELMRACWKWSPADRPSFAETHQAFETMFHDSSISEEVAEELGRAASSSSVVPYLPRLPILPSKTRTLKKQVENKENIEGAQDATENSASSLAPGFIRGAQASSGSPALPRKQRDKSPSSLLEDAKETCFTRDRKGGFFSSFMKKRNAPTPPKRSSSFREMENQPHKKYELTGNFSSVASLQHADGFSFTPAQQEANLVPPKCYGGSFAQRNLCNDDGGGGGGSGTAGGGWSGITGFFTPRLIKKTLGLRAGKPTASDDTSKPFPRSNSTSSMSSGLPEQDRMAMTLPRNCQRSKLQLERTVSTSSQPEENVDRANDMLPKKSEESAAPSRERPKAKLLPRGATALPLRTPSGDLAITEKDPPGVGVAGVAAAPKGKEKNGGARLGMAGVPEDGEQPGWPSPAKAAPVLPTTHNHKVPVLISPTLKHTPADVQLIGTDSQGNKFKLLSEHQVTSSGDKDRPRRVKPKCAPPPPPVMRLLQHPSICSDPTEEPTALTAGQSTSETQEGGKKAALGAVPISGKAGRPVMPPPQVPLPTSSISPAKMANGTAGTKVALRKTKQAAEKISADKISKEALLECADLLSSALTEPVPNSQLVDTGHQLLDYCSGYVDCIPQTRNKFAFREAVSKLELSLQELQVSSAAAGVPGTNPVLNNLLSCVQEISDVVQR

SMILES | inhibition at 0.1 µM (SPHK2) | inhibition at 1 µM (SPHK2) | Percentage inhibition (ARG; 0.1 µM inhibitor, 0.1 µM) | inhibition at 0.1 µM (ARG; 0.1 µM inhibitor) | inhibition at 1 µM (ARG) | inhibition at 0.1 µM (BRSK1) | inhibition at 1 µM (BRSK1) | inhibition at 0.1 µM (HIPK1) | inhibition at 1 µM (HIPK1) | inhibition at 0.1 µM (MET) | inhibition at 1 µM (MET) | inhibition at 0.1 µM (P70S6KB1) | inhibition at 1 µM (P70S6KB1) | inhibition at 0.1 µM (CK2) | inhibition at 1 µM (CK2) | inhibition at 0.1 µM (IRAK4) | inhibition at 1 µM (IRAK4)
COc1cc(-c2cc(-c3cccc(O)c3)cnc2N)cc(OC)c1OC [K02288, 3-[6-amino-5-(3,4,5-trimethoxy-phenyl)-pyridin-3-yl]-phenol] | -2% | 4.4% | > 50% | 66% | 85% | 2.3% | 0% | 1.7% | 3.1% | 0.6% | -2% | -2% | -1% | 6.2% | 2.8% | -1% | 0.3%
c1ccc2c(-c3cnn4cc(-c5ccc(N6CCNCC6)cc5)cnc34)ccnc2c1 [LDN-193189] | -1% | -3% |  | 33% | 73% | 3% | 17% | 0.6% | 4.4% | 6.2% | 8.4% | 1% | 0.6% | 0.7% | 4.2% | 0.7% | 1.9%
